Laboratory results published in patent US20070021509A1, “Phosphate transport inhibitors” (priority 2001, published 2007).

system: glucose uptake into isolated rabbit intestinal rings; assay: Ex vivo glucose uptake into isolated rabbit intestinal rings; format: cell-based; design: concentration or dose not given beside the values; conditions: Table 14
Experimental: For the ex vivo assay, ^33P uptake into isolated rabbit intestinal rings was measured using a modification of the method described by Crane and Mandelstam [Robert K. Crane and Paul Mandelstam “The active transport of sugars by various preparations of hamster intestine” Biochim. Biophys. Acta 45: 460-476, 1960; the contents of which are incorporated herein by reference]. Male New Zealand rabbits 2-3 kg in weight were aeuthinized by an i.v. injection of Fatal Pluse®. A midline laparotomy was performed and the duodenum from the pyloric junction to the ligament of Trietz isolated and excised. Segments of bowel were everted, cut into 2-4 mm ring-like pieces and placed into a modified Hepes-Buffered Ringer's solution in which Na^+ had been iso-osmotically replaced with N-methyl-D-glucamine. […] […] Tissues were then solublized by digesting them in a 5 ml volume of Solvable® tissue solubilizer overnight at 50° C. and ^33P levels determined by scintillation counting. Sodium-dependent uptake of ^33P was calculated by determining the difference in uptake between rings incubated in the presence and absence of Na^+ in the Hepes-Buffered Ringer's solution. Results are reported as the percentage inhibition of phosphate and glucose uptake, respectively.

| SMILES | % Glucose Transport Inhibition [%] |
| --- | --- |
| O=C(NCc1ccccc1OC(F)(F)F)c1cc(Br)ccc1NS(=O)(=O)c1ccc(Cl)cc1 [Example 72, 5-Bromo-2-(4-chloro-benzenesulfonylamino)-N-(2-trifluoromethoxy-benzyl)-benzamide] | 6 |
| O=C(Nc1ccc(Br)cc1)c1cccc(C(F)(F)F)c1 [Example 81, N-(4-Bromo-phenyl)-3-trifluoromethyl-benzamide] | 13 |
| COc1ccccc1CNC(=O)c1cc(Br)ccc1NS(=O)(=O)c1ccc(C(F)(F)F)cc1[N+](=O)[O-] [Example 80, 5-Bromo-N-(2-methoxy-benzyl)-2-(4-trifluoromethyl-2-nitro-benzenesulfonylamino)-benzamide] | 39 |

system: phosphate uptake by rabbit intestinal Brush Border Membrane Vesicles (BBMV); assay: 33PO4 uptake in rabbit intestinal BBMV (HTS), phosphate transporter inhibition in vitro; format: biochemical; conditions: Table 1, phosphate uptake, read-out: IC50
Summary of the method: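 BBMV from duodenal mucosa of male New Zealand White rabbits, diluted to about 0.5-2.0 mg/mL protein. Uptake buffers carried 33PO4 at 200,000 CPM/19 μL. Controls: Na uptake buffer (max), plus 100 μM KH2PO4 pH 7.4 (mid), K uptake buffer (min).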

| SMILES | IC50 [µM] |
| --- | --- |
| O=C(O)c1cc(Br)ccc1NS(=O)(=O)c1ccc(-c2ccccc2)cc1 [Compound 8] | 51 to 100 |
| Cc1ccc(S(=O)(=O)Nc2ccc(Br)cc2C(=O)O)cc1[N+](=O)[O-] [Compound 20] | 101 to 500 |
| O=C(O)c1cc(Br)ccc1NS(=O)(=O)c1ccc(Cl)c([N+](=O)[O-])c1 [Compound 40] | > 1500 |
| O=C(O)c1cc(Br)ccc1NS(=O)(=O)c1ccc(-c2ccccc2)cc1 [Compound 1] | < 50 |
| O=C(O)c1cc(Br)ccc1NS(=O)(=O)c1ccc(Cl)cc1 [Compound 46] | > 1500 |

same assay, conditions: Table 2, phosphate uptake, read-out: IC50

| SMILES | IC50 [µM] |
| --- | --- |
| O=C(Nc1cccc(Cl)c1)c1cc(Br)ccc1NS(=O)(=O)c1ccc(OC(F)(F)F)cc1 [Compound 78] | 101 to 500 |
| O=C(Nc1cccc(Br)c1)c1cc(Br)ccc1NS(=O)(=O)c1ccc(Cl)c([N+](=O)[O-])c1 [Compound 116] | 101 to 500 |
| O=C(NCc1ccc(F)cc1F)c1cc(Br)ccc1NS(=O)(=O)c1ccc(OC(F)(F)F)cc1 [Compound 64] | 51 to 100 |
| Cc1cc(Br)ccc1NC(=O)c1cc(Br)ccc1NS(=O)(=O)c1ccc(OC(F)(F)F)cc1 [Compound 84] | 1000 to 1500 |
| O=C(Nc1ccc(Cl)c(Cl)c1)c1cc(Br)ccc1NS(=O)(=O)c1ccc(Cl)c([N+](=O)[O-])c1 [Compound 113] | 51 to 100 |
| O=C(Nc1ccc(Oc2ccccc2)cc1)c1cc(Br)ccc1NS(=O)(=O)c1ccc(OC(F)(F)F)cc1 [Compound 74] | 101 to 500 |
| COc1ccc(S(=O)(=O)Nc2ccc(Br)cc2C(=O)Nc2cc(Cl)ccc2Cl)cc1[N+](=O)[O-] [Compound 98] | 51 to 100 |
| Cc1cccc(CNC(=O)c2cc(Br)ccc2NS(=O)(=O)c2ccc(OC(F)(F)F)cc2)c1 [Compound 58] | 51 to 100 |
| COc1ccccc1NC(=O)c1cc(Br)ccc1NS(=O)(=O)c1ccc(Cl)c([N+](=O)[O-])c1 [Compound 117] | 101 to 500 |

same assay, conditions: Table 3, 100 μM compound

| SMILES | % Inhib. At 100 μM [%] |
| --- | --- |
| Cc1ccc(S(=O)(=O)N2CCC(=O)c3ccc(Cl)cc32)cc1 [Compound 152] | 54 |
| COc1ccc2c(c1)C(=O)CCN2S(=O)(=O)c1ccc(C)cc1 [Compound 165] | 25 |
| C[S+]([O-])c1ccc2c(c1)CCN2S(=O)(=O)c1cccc(C(F)(F)F)c1 (stereo not shown) [Compound 157] | 37 |
| O=c1sc2ccccc2n1S(=O)(=O)c1ccccc1 [Compound 148] | 60 |
| CC(C)(C)c1ccc(NS(=O)(=O)c2ccc(OC(F)(F)F)cc2)cc1 [Compound 138] | 71 |
| Cc1ccc(CNS(=O)(=O)c2ccc(OC(F)(F)F)cc2)cc1 [Compound 163] | 26 |
| O=S(=O)(Nc1ccccc1-n1cccc1)c1ccc(OC(F)(F)F)cc1 [Compound 134] | 76 |
| CN(C)c1ccc(NS(=O)(=O)c2cc(C(F)(F)F)cc(C(F)(F)F)c2)cc1 [Compound 130] | 81 |
| O=S(=O)(NCc1ccccc1Cl)c1ccc(OC(F)(F)F)cc1 [Compound 133] | 77 |
| O=S(=O)(Nc1ccc(C(F)(F)F)cc1)c1ccc(NS(=O)(=O)c2ccc(C(F)(F)F)cc2)cc1 [Compound 131] | 80 |

same assay, conditions: Table 4, phosphate uptake, read-out: IC50

| SMILES | IC50 [µM] |
| --- | --- |
| Cc1cccc(C)c1NC(=O)Nc1ccc(Br)cc1P(=O)(O)O [Compound 196] | 501 to 1000 |
| O=C(Nc1cc(Cl)c(Cl)cc1Cl)Nc1ccc(Br)cc1P(=O)(O)O [Compound 193] | 101 to 500 |
| O=C(NCc1ccccc1)Nc1ccc(Br)cc1P(=O)(O)O [Compound 201] | 501 to 1000 |
| O=C(Nc1ccccc1-c1ccccc1)Nc1ccc(Br)cc1P(=O)(O)O [Compound 186] | 101 to 500 |
| O=C(Nc1ccc(Cl)cc1)Nc1ccc(Br)cc1P(=O)(O)O [Compound 213] | > 1500 |

same assay, conditions: Table 6, 100 μM compound

| SMILES | % Inhib. at 100 μM [%] |
| --- | --- |
| COc1ccc(C2=NOC(c3ccco3)C2)cc1 (stereo not shown) [Compound 237] | 40 |
| Fc1ccc(C2CC(c3ccc(Oc4ccccc4)cc3)=NO2)cc1 (stereo not shown) [Compound 235] | 54 |

same assay, conditions: Table 10, phosphate uptake, read-out: IC50

| SMILES | IC50 [µM] |
| --- | --- |
| O=C(Nc1ccc(Oc2ccc(Cl)c3ccccc23)c(Cl)c1)c1cc(Cl)cc(Cl)c1O [Compound 258] | 101 to 500 |
| O=C(Nc1ccc(Br)cc1I)c1ccc(OC(F)(F)F)cc1 [Compound 271] | > 1500 |
| CCOP(=O)(OCC)c1cc(Br)ccc1NC(=O)c1cc(F)c(Cl)cc1Cl [Compound 262] | 101 to 500 |

same assay, conditions: Table 11, phosphate uptake, read-out: IC50

| SMILES | IC50 [µM] |
| --- | --- |
| O=C(/C=C/c1ccco1)c1cccc(Oc2ccccc2)c1 [Compound 276] | 501 to 1000 |

same assay, conditions: Table 12, 100 μM compound

| SMILES | % Inhib. at 100 μM [%] |
| --- | --- |
| Cc1cccc(CS(=O)(=O)c2ccc(Cl)cc2)c1F [Compound 282] | 53 |
| O=S(=O)(Cc1c(F)cccc1Cl)c1ccc(Cl)cc1 [Compound 286] | 39 |
| O=S(=O)(Cc1ccccc1)c1ccccc1 [Compound 287] | 34 |

same assay, conditions: Table 13, phosphate uptake, read-out: IC50

| SMILES | IC50 [µM] |
| --- | --- |
| Cc1ccc(S(=O)(=O)Nc2ccc(/C=C/c3ccc(NS(=O)(=O)c4ccc(C)c([N+](=O)[O-])c4)cc3S(=O)(=O)O)c(S(=O)(=O)O)c2)cc1[N+](=O)[O-] [Compound 309] | > 1500 |
| O=[N+]([O-])c1ccc(S(=O)(=O)Nc2ccc(/C=C/c3ccc(NS(=O)(=O)c4ccc([N+](=O)[O-])cc4)cc3S(=O)(=O)O)c(S(=O)(=O)O)c2)cc1 [Compound 303] | 501 to 1000 |

system: sodium-dependent phosphate uptake into isolated rabbit intestinal rings; assay: Ex vivo 33P uptake into isolated rabbit intestinal rings; format: cell-based; design: concentration or dose not given beside the values; conditions: Table 14, 15-minute incubation
Experimental: For the ex vivo assay, ^33P uptake into isolated rabbit intestinal rings was measured using a modification of the method described by Crane and Mandelstam [Robert K. Crane and Paul Mandelstam “The active transport of sugars by various preparations of hamster intestine” Biochim. Biophys. Acta 45: 460-476, 1960; the contents of which are incorporated herein by reference]. Male New Zealand rabbits 2-3 kg in weight were aeuthinized by an i.v. injection of Fatal Pluse®. A midline laparotomy was performed and the duodenum from the pyloric junction to the ligament of Trietz isolated and excised. Segments of bowel were everted, cut into 2-4 mm ring-like pieces and placed into a modified Hepes-Buffered Ringer's solution in which Na^+ had been iso-osmotically replaced with N-methyl-D-glucamine. To measure phosphate uptake, six rings were incubated in a 50 ml conical tube containing a 10 ml volume of Ringer's solution, with or without Na^+, bubbled with 100% O2 and maintained at 37° C. 0.5 uCi/ml ^33P was then incubated with the rings for a 15-minute period, the tissue harvested, rinsed, blotted dry and weighed. Tissues were then solublized by digesting them in a 5 ml volume of Solvable® tissue solubilizer overnight at 50° C. and ^33P levels determined by scintillation counting. Sodium-dependent uptake of ^33P was calculated by determining the difference in uptake between rings incubated in the presence and absence of Na^+ in the Hepes-Buffered Ringer's solution. Results are reported as the percentage inhibition of phosphate and glucose uptake, respectively.

| SMILES | % Phosphate Transport Inhibition [%] |
| --- | --- |
| O=C(NCc1ccccc1OC(F)(F)F)c1cc(Br)ccc1NS(=O)(=O)c1ccc(Cl)cc1 [Example 72, 5-Bromo-2-(4-chloro-benzenesulfonylamino)-N-(2-trifluoromethoxy-benzyl)-benzamide] | 24 |
| O=C(Nc1ccc(Br)cc1)c1cccc(C(F)(F)F)c1 [Example 81, N-(4-Bromo-phenyl)-3-trifluoromethyl-benzamide] | 22 |
| COc1ccccc1CNC(=O)c1cc(Br)ccc1NS(=O)(=O)c1ccc(C(F)(F)F)cc1[N+](=O)[O-] [Example 80, 5-Bromo-N-(2-methoxy-benzyl)-2-(4-trifluoromethyl-2-nitro-benzenesulfonylamino)-benzamide] | 43 |
